Test results from publication PMC6680932, “Structure–Antioxidant–Antiproliferative Activity Relationships of Natural C7 and C7–C8 Hydroxylated Flavones and Flavanones” (Antioxidants, 2019).
Read-outs that look alike come from different tables or passages of the source.

Key:
[1] = tested on: MV-4-11 (biphenotypic B myelomonocytic leukemia); experiment: Antiproliferative activity in vitro, MTT assay; type: cell-based, human; details: read-out: IC50 ± SD MV-4-11
[2] = tested on: DU 145 (prostate cancer); experiment: Antiproliferative activity in vitro, SRB assay; type: cell-based, human; details: read-out: IC50 ± SD DU 145
[3] = tested on: LoVo/DX (colon cancer doxorubicin-resistant); experiment: Antiproliferative activity in vitro, SRB assay; type: cell-based, human; details: 72 h exposure, read-out: IC50 ± SD LoVo/DX
[4] = tested on: LoVo (colon cancer); experiment: Antiproliferative activity in vitro, SRB assay; type: cell-based, human; details: read-out: IC50 ± SD LoVo
Experimental: (§1) The antiproliferative studies were performed in vitro using human cancer cell lines—MV-4-11 (biphenotypic B myelomonocytic leukemia), MCF7 (breast carcinoma), LoVo (colon cancer), LoVo/DX (colon cancer doxorubicin-resistant), and DU 145 (prostate cancer)—and normal human cell lines—MCF 10A (breast cells) and HLMEC (lung microvascular endothelial cells). The cell lines MV-4-11, LoVo, DU 145, and MCF 10A were obtained from the American Type Culture Collection (Rockville, Maryland, USA), MCF7 from the European Collection of Authenticated Cell Cultures (ECACC, Salisbury, UK), LoVo/DX courtesy of Professor E. Borowski (Technical University of Gdansk, Poland), and HLMECs (which had been already immortalized by transfection with pSV3-neoplasmid containing large T-antigen gene) were the kind gift of Professor Claudine Kieda (Center for Molecular Biophysics, Orleans, France). The cell lines are being maintained in the Hirszfeld Institute of Immunology and Experimental Therapy, Polish Academy of Sciences (HIIET, PAS), Wroclaw, Poland. All cell lines were grown at 37 °C with 5% CO2 humidified atmosphere. The MV-4-11 cells were cultured in RPMI 1640 medium with GlutaMAX (Gibco, Scotland, UK), supplemented with 1 mM sodium pyruvate and 10% fetal bovine serum (both from Sigma-Aldrich, Poznan, Poland). The MCF7 cells were cultured in Eagle medium (HIIET, PAS, Wroclaw, Poland) supplemented with 2 mM L-glutamine, 10% fetal bovine serum, 1% nonessential amino acid solution, and 0.8 mg/L of insulin (all from Sigma-Aldrich, Poznan, Poland). The LoVo and LoVo/DX cells were cultured in a 1:1 (v/v) mixture of RPMI 1640 and Opti-MEM (both HIIET, PAS, Wroclaw, Poland), supplemented with 1 mM sodium pyruvate, 2 mM L-glutamine, and 5% fetal bovine serum (all from Sigma-Aldrich, Poznan, Poland). For LoVo/DX cells, additionally 10 µg/100 mL of doxorubicin (Accord Healthcare) was added to the medium. DU 145 cells were cultured in Eagle medium (HIIET, PAS, Wroclaw, Poland) supplemented with 1 mM sodium pyruvate, 4 mM L-glutamine, and 10% fetal bovine serum (all from Sigma-Aldrich, Poznan, Poland). The MCF 10A cells were cultured in the F-12 nutrient mixture (Gibco, Scotland, UK), supplemented with 5% horse serum (Gibco, Scotland, UK), 0.05 μg/mL of cholera toxin (Vibrio cholerae), 0.5 μg/mL of hydrocortisone, 10 μg/mL of insulin, and 20 ng/mL of human epidermal growth factor (all from Sigma-Aldrich, Poznan, Poland). The HLMEC cells were cultured in the RPMI 1640 medium (HIIET, PAS, Wroclaw, Poland) with the addition of 2 mM L-glutamine (Sigma-Aldrich, Poznan, Poland) and 10% fetal bovine serum (GE Healthcare). All culture media were supplemented with 100 units/mL penicillin (Polfa Tarchomin S.A., Warsaw, Poland) and 100 µg/mL streptomycin (Sigma-Aldrich, Poznan, Poland). Twenty-four hours before addition of the tested agents, the cells were plated in 96-well plates (Sarstedt, Germany) at a density of 1 × 10^4 (1 × 10^3 for HLMEC and 0.75 × 10^4 for MCF7) cells per well in 100 μL of culture medium.
(§2) Tested compounds were dissolved in DMSO and then diluted in a 1:1 (v/v) mixture of RPMI 1640 (HIIET, PAS, Wroclaw, Poland) and Opti-MEM (Gibco, Scotland, UK) medium supplemented with 2 mM L-glutamine (Sigma-Aldrich, Poznan, Poland), 5% fetal bovine serum (GE Healthcare), 100 units/mL penicillin (Polfa Tarchomin S.A., Warsaw, Poland), and 100 µg/mL streptomycin (Sigma-Aldrich, Poznan, Poland). The antiproliferative effects of the flavonoids were examined after 72 h of exposure of the cultured cells to varying concentrations of the tested agents (from 0.1 to 100 μg/mL) using the MTT (for MV-4-11 cells) or SRB assay described below. Cisplatin (chemotherapy drug used to treat a number of cancers) was used as a positive control. The results are presented as an inhibitory concentration 50 (IC50), which is the concentration of the tested agent that inhibits proliferation of the cell population by 50%. IC50 values for each experiment were calculated separately. […]

[5] = tested on: MCF7 (breast carcinoma); experiment: Antiproliferative activity in vitro, SRB assay; type: cell-based, human; details: read-out: IC50 ± SD MCF7
Experimental: as §1, §2

[6] = tested on: HLMEC (lung microvascular endothelial cells); experiment: Antiproliferative activity in vitro, SRB assay; type: cell-based, human; details: read-out: IC50 ± SD HLMEC
Experimental: as §1, §2

[7] = tested on: MCF 10A (breast cells); experiment: Antiproliferative activity in vitro, SRB assay; type: cell-based, human; details: read-out: IC50 ± SD MCF 10A
Experimental: as §1, §2

[8] = DPPH free radical scavenging activity assay; details: for TEAC DPPH: 10 min, 517 nm, mean ± SD; for increase of antioxidant activity in DPPH test, biotransformation product vs substrate: 8-hydroxylated product relative to the substrate from which it was obtained
Experimental: (§3) The antioxidant capacity of flavonoids was measured in three separate tests: ABTS, DPPH, and ferric ion reducing antioxidant power (FRAP) assays (ABTS, DPPH, and FRAP reagents from Sigma-Aldrich). All tested compounds were dissolved in DMSO. All determinations were performed in triplicate. Standard curves were prepared for all assays using different concentrations of Trolox (6-hydroxy-2,5,7,8-tetramethylchroman-2-carboxylic acid) (Sigma-Aldrich). Trolox is a water-soluble analogue of vitamin E with high antioxidant activity, commonly used as a control and a reference in studies of antioxidant activity. The results were expressed as the equivalent of μmol Trolox per μmol of the test compound. The absorbance was measured using a UV-2401 PC spectrophotometer (Shimadzu, Kyoto, Japan). Concentrations of the tested samples were in the range from 50 µg/mL to 10 mg/mL.
The DPPH (2,2-diphenyl-1-picrylhydrazyl) radical scavenging activity of samples was determined according to the method described by Yen and Chen with some modifications. Samples (0.1 mL) of known concentration were mixed in polystyrene cuvettes with 2 mL of 0.04 mM DPPH in ethanol and 0.4 mL of ethanol. The absorbance was measured after 10 min at λ = 517 nm. The DPPH reagent was freshly prepared before each experiment.

[9] = ABTS radical cation decolorization assay; details: for TEAC ABTS: 6 min incubation, 734 nm, mean ± SD; for increase of antioxidant activity in ABTS test, biotransformation product vs substrate: 8-hydroxylated product relative to the substrate from which it was obtained
Experimental: as §3
The radical cation scavenging capacity of the tested compounds was examined against ABTS^+ (2,2’-azino-bis(3-ethylbenzo-thiazoline-6-sulfonic acid) according to the procedure described by Re et al. with some modifications. The test sample (30 μL) of known concentration was mixed in a polystyrene cuvette with 3 mL of ABTS solution with a measured absorption of 0.700 at a wavelength of λ = 734 nm. After 6 min of incubation, the absorption of samples was recorded. The ABTS reagent was freshly prepared before each experiment.

[10] = FRAP (ferric ion reducing antioxidant power) assay; details: for TEAC FRAP: 10 min, 593 nm, mean ± SD
Experimental: as §3
The FRAP method is based on measuring the ability of antioxidants to reduce ferric 2,4,6-tris(2-pyridyl)-1,3,5-triazine [Fe(III)-TPTZ] in the blue colored ferrous form, which absorbs light at λ = 593 nm. The Fe(III)-TPTZ reagent was prepared as a mixture of acetate buffer (pH 3.6), 10 mM TPTZ in 40 mM HCl, and 20 mM FeCl3 in the ratio of 10:1:1 (v/v/v). The FRAP reagent was freshly prepared before each experiment. The samples (0.1 mL) were mixed in polystyrene cuvettes with 3 mL of ferric complex and 0.9 mL of distilled water. The absorbance was measured after 10 min at λ = 593 nm.

[11] = 72 h exposure, SRB, normal cell line
[12] = Homo sapiens, MV4-11, 72 h exposure
[13] = Homo sapiens, LoVo, 72 h, 72 h exposure, SRB
[14] = Homo sapiens, MCF7, 72 h exposure, SRB
[15] = Homo sapiens, Endothelial cell, 72 h exposure, SRB, normal cell line

Row | Compound | TEAC DPPH [8] | IC50 ([3]; Homo sapiens, LoVo/DX) [µM] | IC50 [4, 13] [µM] | IC50 [5, 14] [µM] | IC50 [6, 15] [µM] | TEAC ABTS [9] | TEAC FRAP [10] | increase of antioxidant activity in DPPH test, biotransformation product vs substrate [8] | increase of antioxidant activity in ABTS test, biotransformation product vs substrate [9] | other results
1 | N.N.[Cl][Pt][Cl] [Cisplatin, reference compound] |  |  |  |  |  |  |  |  |  | IC50 ([1]; 72 h exposure): 1.6 ± 0.33 µM; IC50 ([2]; 72 h exposure, SRB): 1.47 ± 0.12 µM; IC50 [3]: 3.23 ± 0.77 µM; IC50 ([4]; 72 h exposure, SRB): 5.87 ± 1.72 µM; IC50 ([5]; 72 h exposure, SRB): 7.5 ± 1.32 µM; IC50 [6, 11]: 1.07 ± 0.05 µM; IC50 [7, 11]: 10.6 ± 1.17 µM
2 | O=c1cc(-c2ccccc2)oc2cc(O)cc(O)c12 [Compound 1, Chrysin] | 0.004 ± 0.001 µmol trolox per µmol of tested | 13 ± 1.29 | 28 ± 8.17 | 75 ± 26.1 | 22.9 ± 2.02 | 0.084 ± 0.011 µmol trolox per µmol of tested |  |  |  | IC50 [1, 12]: 15.1 ± 1.99 µM; IC50 ([7]; Homo sapiens, MCF-10A, 72 h exposure, SRB, normal cell line): 27 ± 12 µM
3 | COc1ccc(-c2cc(=O)c3c(O)cc(O)cc3o2)cc1O [Compound 4, diosmetin] | 0.008 ± 0.001 µmol trolox per µmol of tested | 13.4 ± 3.02 | 15 ± 2.2 | 123 ± 37.4 | 14.4 ± 1.95 | 1.712 ± 0.041 µmol trolox per µmol of tested |  |  |  | IC50 [1, 12]: 8.39 ± 3.53 µM
4 | O=C1C[C@@H](c2ccc(O)c(O)c2)Oc2cc(O)cc(O)c21 [Compound 7, eriodictyol] | 9.582 ± 0.315 µmol trolox per µmol of tested | 99.2 ± 12.5 |  |  |  | 13.988 ± 0.251 µmol trolox per µmol of tested | 10.619 ± 0.319 µmol trolox per µmol of tested |  |  | IC50 ([2]; Homo sapiens, DU-145, 72 h): 121 ± 18.4 µM; IC50 ([4]; Homo sapiens, LoVo, 72 h): 101 ± 10.9 µM; IC50 ([5]; Homo sapiens, MCF7, 72 h): 151 ± 9.31 µM; IC50 ([6]; Homo sapiens, Endothelial cell, 72 h): 25.8 ± 6.71 µM; IC50 ([7]; Homo sapiens, MCF-10A, 72 h): 147 ± 36.2 µM
5 | O=c1cc(-c2ccccc2)oc2c(O)c(O)cc(O)c12 [Compound 9, 8-hydroxychrysin] | 8.038 ± 0.061 µmol trolox per µmol of tested |  |  |  | 120 ± 2.24 | 14.173 ± 1.591 µmol trolox per µmol of tested | 8.900 ± 0.582 µmol trolox per µmol of tested | about 2000 fold | about 170 fold | 
6 | O=c1cc(-c2ccc(O)c(O)c2)oc2c(O)c(O)cc(O)c12 [Compound 11, 8-hydroxyluteolin] | 13.208 ± 0.080 µmol trolox per µmol of tested |  | 238 ± 35.4 |  | 106 ± 1.72 | 34.450 ± 1.016 µmol trolox per µmol of tested | 36.895 ± 0.432 µmol trolox per µmol of tested |  | more than twice as active | 
7 | COc1ccc(-c2cc(=O)c3c(O)cc(O)c(O)c3o2)cc1O [Compound 12, 8-Hydroxydiosmetin] | 8.496 ± 0.040 µmol trolox per µmol of tested |  | 224 ± 15.3 |  | 108 ± 15.4 | 13.405 ± 0.826 µmol trolox per µmol of tested | 11.340 ± 0.203 µmol trolox per µmol of tested |  |  | 
8 | O=C1CC(c2ccccc2)Oc2c(O)c(O)cc(O)c21 (centres unmarked) [Compound 13, 8-hydroxypinocembrin] | 9.164 ± 0.097 µmol trolox per µmol of tested |  |  |  | 148 ± 13.4 | 20.763 ± 0.939 µmol trolox per µmol of tested | 12.861 ± 0.313 µmol trolox per µmol of tested | about 1800 fold | about 130 fold | 
9 | COc1ccc(C2CC(=O)c3c(O)cc(O)c(O)c3O2)cc1O (centres unmarked) [Compound 18, 8-hydroxyhesperetin] | 14.150 ± 0.229 µmol trolox per µmol of tested |  |  | 135 ± 20.3 | 97.1 ± 5.15 | 31.187 ± 1.353 µmol trolox per µmol of tested | 25.260 ± 0.909 µmol trolox per µmol of tested | 144 fold | more than twice as active | increase of antioxidant activity in FRAP test, biotransformation product vs substrate ([10]; 8-hydroxylated product relative to the substrate from which it was obtained): 6 fold
